Test results: patent publication US8685970B2, “Quinolines and related analogs as sirtuin modulators” (GlaxoSmithKline, LLC, priority 2008, dated 2014)

Molecular target: T1, SIRT1 (Homo sapiens, UniProt Q96EB6)
T1 sequence (Q96EB6 1-747): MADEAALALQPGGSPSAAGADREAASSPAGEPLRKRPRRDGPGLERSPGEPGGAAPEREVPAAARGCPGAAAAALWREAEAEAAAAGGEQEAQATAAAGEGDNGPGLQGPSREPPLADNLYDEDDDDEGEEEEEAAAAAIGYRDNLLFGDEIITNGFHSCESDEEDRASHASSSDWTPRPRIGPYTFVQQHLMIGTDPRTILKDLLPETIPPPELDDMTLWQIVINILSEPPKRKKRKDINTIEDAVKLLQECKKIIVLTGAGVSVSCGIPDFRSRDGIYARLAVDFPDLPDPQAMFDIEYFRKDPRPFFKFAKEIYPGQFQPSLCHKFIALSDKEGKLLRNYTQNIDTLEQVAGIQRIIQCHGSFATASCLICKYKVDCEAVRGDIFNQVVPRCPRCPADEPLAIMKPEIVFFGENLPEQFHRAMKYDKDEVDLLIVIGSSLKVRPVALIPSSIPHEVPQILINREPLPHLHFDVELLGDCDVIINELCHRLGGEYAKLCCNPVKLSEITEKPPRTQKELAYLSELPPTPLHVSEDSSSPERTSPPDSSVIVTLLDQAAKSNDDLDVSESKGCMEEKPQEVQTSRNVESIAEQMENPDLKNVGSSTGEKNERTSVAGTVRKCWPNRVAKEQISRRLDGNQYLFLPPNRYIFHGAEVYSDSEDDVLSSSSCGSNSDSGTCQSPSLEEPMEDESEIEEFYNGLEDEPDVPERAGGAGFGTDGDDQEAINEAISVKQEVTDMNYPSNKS
Assay: Mass spectrometry based SIRT1 deacetylation assay (activation)
Assay type: biochemical
Conditions: 10 nM SIRT1, 0.5 μM peptide substrate, 120 μM βNAD+, 25 min at 25° C.
Summary of the method: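 Activation reported as EC1.5, the compound concentration producing 150% of DMSO-control deacetylation, plus maximum fold activation. Readout is mass-spectrometric ratio of deacetylated to acetylated p53-based peptide (0.5 μM) after 25 min, 25 °C, with 120 μM βNAD+ and 10 nM His-tagged human SIRT1, pH 8.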

| Compound | % Fold Act. (percent maximum fold activation) | EC1.5 (concentration of test compound that results in 150% activation of SIRT1) |
| --- | --- | --- |
| Cn1ccnc1C(=O)Nc1cccc2ccc(-c3cccc(C(F)(F)F)c3)nc12 [Compound 222] | A (Fold activation >200%) | A (EC1.5<1.0 uM) |
| O=C(Nc1cccnc1)c1cccc2ccc(-c3ccccc3C(F)(F)F)nc12 [Compound 86] | A (Fold activation >200%) | B (EC1.5 1-25 uM) |
| O=C(Nc1cccc2ccc(-c3cc(F)cc(C(F)(F)F)c3)nc12)c1cscn1 [Compound 169] | – | C (EC1.5>25 uM) |
| O=C(Nc1cccc2ccc(-c3cc(F)cc(C(F)(F)F)c3)nc12)c1ccccn1 [Compound 159] | – | C (EC1.5>25 uM) |
| O=C(Nc1cccnc1)c1cccc2ccc(-c3cccc(OC4CCNCC4)c3)nc12 [Compound 132] | A (Fold activation >200%) | A (EC1.5<1.0 uM) |
| O=C(Nc1cccnc1)c1cccc2ccc(-c3cccc(OC(F)(F)F)c3)nc12 [Compound 25] | A (Fold activation >200%) | A (EC1.5<1.0 uM) |
| O=S(=O)(Nc1cccc2ccc(-c3cccc(C(F)(F)F)c3)nc12)c1ccccn1 [Compound 273] | – | C (EC1.5>25 uM) |
| FC(F)(F)c1cccc(-c2ccc3cccc(CNc4cccnc4)c3n2)c1 [Compound 105] | – | C (EC1.5>25 uM) |
| Cn1ccc(NC(=O)c2cccc3ccc(-c4cccc(C(F)(F)F)c4)nc23)n1 [Compound 272] | A (Fold activation >200%) | A (EC1.5<1.0 uM) |
| CS(=O)(=O)c1cncc(-c2ccc3cccc(NC(=O)c4cscn4)c3n2)c1 [Compound 229] | A (Fold activation >200%) | B (EC1.5 1-25 uM) |
| O=C(Nc1ccccn1)c1cccc2cnc(-c3cccc(C(F)(F)F)c3)nc12 [Compound 283] | – | C (EC1.5>25 uM) |
| FC(F)(F)Oc1cccc(-c2ccc3cccc(NCc4cccnc4)c3n2)c1 [Compound 139] | – | C (EC1.5>25 uM) |
| Cc1cc(NC(=O)c2cccc3ccc(-c4cccc(C(F)(F)F)c4)nc23)no1 [Compound 73] | B (Fold Activation <200%) | B (EC1.5 1-25 uM) |
| O=C(Nc1cccc(OC2CCNC2)c1)c1cccc2ccc(-c3cccc(C(F)(F)F)c3)nc12 (stereo not drawn) [Compound 257] | A (Fold activation >200%) | A (EC1.5<1.0 uM) |
| O=C(Nc1ccc(Cl)nc1)c1cccc2ccc(-c3cccc(C(F)(F)F)c3)nc12 [Compound 58] | B (Fold Activation <200%) | A (EC1.5<1.0 uM) |
| COc1cccc(C(=O)Nc2cccc3ccc(-c4cccc(C(F)(F)F)c4)nc23)c1 [Compound 205] | B (Fold Activation <200%) | B (EC1.5 1-25 uM) |
| O=C(Nc1cccc2ccc(-c3cccc(OC(F)(F)F)c3)nc12)c1ccc(F)cc1 [Compound 22] | – | C (EC1.5>25 uM) |
| O=C(Nc1cccc2ccc(-c3cccc(C(F)(F)F)c3)nc12)c1cncs1 [Compound 220] | A (Fold activation >200%) | A (EC1.5<1.0 uM) |

Results, then the molecule that gave them:

| % Fold Act. (percent maximum fold activation) | EC1.5 (concentration of test compound that results in 150% activation of SIRT1) | Compound |
| --- | --- | --- |
| B (Fold Activation <200%) | A (EC1.5<1.0 uM) | Cc1cnc(NC(=O)c2cccc3ccc(-c4cccc(C(F)(F)F)c4)nc23)s1 [Compound 42] |
| A (Fold activation >200%) | A (EC1.5<1.0 uM) | Cc1cncc(-c2ccc3cccc(C(=O)Nc4cccc(CN5CCOCC5)n4)c3n2)c1 [Compound 244] |
| – | C (EC1.5>25 uM) | O=C(Nc1cnccn1)c1cccc2ccc(-c3cccnc3)nc12 [Compound 181] |
| A (Fold activation >200%) | A (EC1.5<1.0 uM) | O=C(Nc1ccncn1)c1cccc2ccc(-c3cccc(C(F)(F)F)c3)nc12 [Compound 41] |
| A (Fold activation >200%) | A (EC1.5<1.0 uM) | CCOC(=O)c1csc(NC(=O)c2cccc3ccc(-c4cccc(C(F)(F)F)c4)nc23)n1 [Compound 91] |
| A (Fold activation >200%) | B (EC1.5 1-25 uM) | O=C(Nc1cccc(CN2CCCC2)n1)c1cccc2ccc(-c3cccnc3)nc12 [Compound 230] |
| A (Fold activation >200%) | A (EC1.5<1.0 uM) | O=C(Nc1ccccn1)c1cccc2ccc(-c3cccc(OC(F)(F)F)c3)nc12 [Compound 24] |
| A (Fold activation >200%) | A (EC1.5<1.0 uM) | Cc1nnc(NC(=O)c2cccc3ccc(-c4cccc(N5CCOCC5)c4)nc23)o1 [Compound 276] |
| A (Fold activation >200%) | A (EC1.5<1.0 uM) | O=C(Nc1nncs1)c1cccc2ccc(-c3cccc(N4CCOCC4)c3)nc12 [Compound 251] |
| A (Fold activation >200%) | A (EC1.5<1.0 uM) | O=C(Nc1nccs1)c1cccc2ccc(-c3ccnc(N4CCC4)c3)nc12 [Compound 179] |
| A (Fold activation >200%) | A (EC1.5<1.0 uM) | O=C(Nc1ccc(Cl)cn1)c1cccc2ccc(-c3cccc(N4CCOCC4)c3)nc12 [Compound 278] |
| – | C (EC1.5>25 uM) | O=C(Nc1ccncn1)c1cccc2ccc(-c3ccc(C(F)(F)F)cc3)nc12 [Compound 99] |
| – | C (EC1.5>25 uM) | O=C(Nc1ccncn1)c1cccc2ccc(-c3cccnc3)nc12 [Compound 208] |
| A (Fold activation >200%) | B (EC1.5 1-25 uM) | O=C(Nc1ccncc1)c1cccc2ccc(-c3cccc(OC(F)(F)F)c3)nc12 [Compound 26] |
| A (Fold activation >200%) | A (EC1.5<1.0 uM) | O=C(Nc1nc(CN2CCCC2)cs1)c1cccc2ccc(-c3cccc(C(F)F)c3)nc12 [Compound 261] |
| A (Fold activation >200%) | A (EC1.5<1.0 uM) | O=C(Nc1cccc(CN2CCCC2)n1)c1cccc2ccc(-c3cccc(C(F)(F)F)c3)nc12 [Compound 227] |
| A (Fold activation >200%) | A (EC1.5<1.0 uM) | O=C(Nc1cccc2ccc(-c3ccc(F)nc3)nc12)c1cscn1 [Compound 176] |
| – | C (EC1.5>25 uM) | Cc1cnc(NC(=O)c2cccc3ccc(-c4cccnc4)nc23)s1 [Compound 225] |
| A (Fold activation >200%) | A (EC1.5<1.0 uM) | O=C(Nc1cnccn1)c1cccc2ccc(-c3cccc(N4CCOCC4)c3)nc12 [Compound 279] |
| B (Fold Activation <200%) | A (EC1.5<1.0 uM) | O=C(Nc1nccs1)c1cccc2ccc(-c3cccnc3)nc12 [Compound 180] |
| – | C (EC1.5>25 uM) | O=C(Nc1nncs1)c1cccc2ccc(-c3cccnc3)nc12 [Compound 234] |
| A (Fold activation >200%) | B (EC1.5 1-25 uM) | O=C(Nc1cccc2ccc(-c3ccc(N4CCOCC4)nc3)nc12)c1cscn1 [Compound 246] |
| A (Fold activation >200%) | A (EC1.5<1.0 uM) | Cc1cc(-c2ccc3cccc(NC(=O)c4cscn4)c3n2)ccn1 [Compound 197] |
| A (Fold activation >200%) | A (EC1.5<1.0 uM) | O=C(Nc1nc(CN2CCOCC2)cs1)c1cccc2ccc(-c3ccccc3C(F)(F)F)nc12 [Compound 274] |
